This is an account of results in patent publication US20020192231A1, “Method of increasing anti-neuGc antibody levels in blood” (Immucom Inc., priority 2001, published 2002).

Structures are written as SMILES.

The subject of experiment [1] is human anti-nonαGal (anti-NeuGc). The experiment can be described thus: Inhibition of human anti-nonαGal binding to pRBC by sialic acids, flow cytometry. The conditions noted are these: for effect on antibody binding to pRBC: antibodies preincubated with 10 mM sialic acid. How it is done:
FIG. 1. Flow cytometry analysis of human anti-nonαGal. The antibodies were incubated with pRBC (type O) at room temperature for 30 min. Anti-human IgG (H+L) conjugated with R-phycoerythrin (PE) was used as a second antibody. (A) The antibodies were bound to untreated (peak 1) or sialidase-treated (peak 2) pRBC. In an inhibition assay, the antibodies were preincubated with NeuAc (peak 3) or NeuGc (peak 4) prior to binding with untreated pRBC. Cells plus the secondary antibody (peak 5) was used as background controls for the flow cytometry. (B) The antibodies were pre-incubated with increasing concentrations of NeuGc (●) or NeuAc (∘) prior to flow cytometry analysis. The percentage of binding (% MFI) was plotted against sialic acid concentrations. Human anti-nonαGal was prepared by depleting anti-αGal from the total xenoreactive antibodies in the serum (31). […] On the other hand, pre-treatment of fresh pRBC with a number of other exoglycosidases (β-galactosidase, α-N-acetylgalactosaminidase and hexosaminidase) had no effect on antibody binding (data not shown). To elucidate the nature of antigens recognized by anti-nonαGal, the antibodies were preincubated with 10 mM NeuGc or NeuAc prior to the binding with pRBC.

The test system of another experiment is post-immune IgY. As to the kind of experiment: Inhibition of chicken post-immune IgY binding to pRBC, flow cytometry. The conditions noted are these: pre-incubation with 3.75 mM NeuGc. On the procedure:
FIG. 3. Flow cytometry analysis of chicken antibody raised against porcine gangliosides. The antibody sample was incubated with α-galactosidase pRBC (type O) at room temperature for 0.5 hour. Anti-chicken IgG (H+L) conjugated with FITC was used as a second antibody. Cells alone or cells plus the secondary antibody (1) were used as a background control for the flow cytometry (Becton Dickinson). Chicken antibodies (0.1 ul each) prepared from pre-immune eggs (2) and post-immune eggs (3) were analyzed by flow cytometry analysis. Post-immune antibodies were pre-incubated with 3.75 mM NeuGc (4) or 3.75 mg/ml porcine gangliosides (5) prior to the analysis. To examine the effect of ganglioside immunization and level of induced antibodies in eggs, IgY prepared from pre-immune eggs and post-immune eggs were analyzed by flow cytometry analysis using α-galactosidase-treated pRBC. […] We are collecting 20-25 eggs per hen per month.

Experiment [2] concerns chicken anti-gangliosides. The experiment can be described thus: Inhibition of purified chicken anti-gangliosides binding to pRBC, flow cytometry. The conditions noted are these: pre-incubation with NeuGc. On the procedure: (§1) FIG. 5. Selective inhibition of chicken anti-NeuGc and anti-gangliosides. (A) Prior to flow cytometry analysis, both antibodies were pre-incubated with increased amount of NeuGc. (B) Both antibodies were pre-incubated with increasing amount of porcine gangliosides. To further purify chicken antibodies that bind to the thyroglobulin column, we eluted the column with PBS containing NeuGc, followed by glycine-HCI, pH 2.5. The two resultant fractions are designated as anti-NeuGc and anti-gangliosides, respectively, based on detailed characterization of their binding specificities as described below. Quantitatively, there are roughly ten times more anti-NeuGc than anti-gangliosides activity in the chicken antibodies based on flow cytometry analysis (assuming there are the same amounts of binding sites for both antibodies on pRBC). Both of antibody fractions, anti-NeuGc and anti-gangliosides, derived from further purification of the post-immune IgY bind to pRBC in flow cytometry.
On the technique in general: In flow cytometry, cells or beads pass a laser one at a time.

Experiment [3] deals with breast cancer cell line MCF-7. The experiment can be described thus: ECL fluorescence immunoassay on fixed MCF-7 cells. The class given is cell-based. The conditions noted are these: 30 mM NeuGc. On the procedure: More recently, we have succeeded in detecting NeuGc antigen in breast cancer cell line MCF-7 using purified chicken anti-NeuGc antibody. Cells are seeded in chambered slides under cell culture conditions. After growing upto 80%-90% confluence (approximately 2-3 days), cells are gently washed with PBS, pH 7.2, and then fixed in 300 ul methanol for 5 min at room temperature. The chambered slides are blocked with PBS containing 2% BSA prior to the incubation with purified chicken anti-NeuGc in a ECL fluorescence immunoassay. […] Its binding specificity was confirmed by inhibition with 30 mM NeuGc.

For a further experiment, the system named is chicken anti-NeuGc. The experiment can be described thus: Inhibition of purified chicken anti-NeuGc binding to pRBC, flow cytometry. The conditions noted are these: at 9.5 mM of NeuGc. How it is done: as §1

On to `CC(=O)N[C@H]1[C@H]([C@H](O)[C@H](O)CO)OC(O)(C(=O)O)C[C@@H]1O` (stereo partly shown) [NeuAc, N-acetylneuraminic acid], for which the “inhibition of antibody binding” value in experiment [1] (NeuAc as high as 6 mM) was “essentially no inhibition”. Further, the “effect on antibody binding to pRBC” value in experiment [1] was “no effect”.

Turning to `O=C(CO)N[C@H]1[C@H]([C@H](O)[C@H](O)CO)OC(O)(C(=O)O)C[C@@H]1O` (stereo partly shown) [NeuGc, N-glycolylneuraminic acid], in the experiment on post-immune IgY, the “inhibition of binding activity” value is recorded as “partially inhibited”. Besides, the “maximal inhibition of anti-gangliosides binding” value in experiment [2] is listed as “approximately 30%”. Besides, in experiment [3], the “inhibition of anti-NeuGc binding to MCF-7 cells” value is recorded as “inhibition”. Also, the “inhibition of anti-NeuGc binding” value in the experiment with chicken anti-NeuGc was “more than 95%”. Also, the “inhibition of human anti-NeuGc activity by pre-incubation” value in experiment [1] (anti-NeuGc purified from normal human sera) is “specifically inhibited”. Besides, the “effect on antibody binding to pRBC” value in experiment [1] is “strong inhibitory effect”. Moreover, the “inhibition of antibody binding” value in experiment [1] (at 1.2 mM of NeuGc) is listed as “Ninety”. In experiment [1] (based on mean fluorescent intensity (MFI), read-out: I50 value (concentration that gives rise to 50% inhibition)), the IC50 was about 73 µM.
